# From patent EP1680415B1, “PYRROLIDINYL UREA DERIVATIVES AS ANGIOGENESIS INHIBITORS” (ABBOTT LABORATORIES, priority 2003, dated 2005)
# Tested on: HMVEC
# Assay: human microvascular endothelial (HMVEC) migration assay
# Format: cell-based
# Details: Inhibition of HMVEC migration, activators 15 ng/mL bFGF/VEGF, 4 hours at 37 °C, compared to a positive control; for inhibition at 10 pM: 0.01 nM
# Procedure: The human microvascular endothelial (HMVEC) migration assay was run according to the procedure of S. S. Tolsma, O. V. Volpert, D. J. Good, W. F. Frazier, P. J. Polverini and N. Bouck, J. Cell Biol. 122, 497-511 (1993).
# The HMVEC migration assay was carried out using Human Microvascular Endothelial Cells-Dermal (single donor) and Human Microvascular Endothelial Cells, (neonatal). The BCE or HMVEC cells were starved overnight in DME containing 0.01% bovine serum albumin (BSA). Cells were then harvested with trypsin and resuspended in DME with 0.01 % BSA at a concentration of 1.5 X 10^6 cells per mL. Cells were added to the bottom of a 48 well modified Boyden chamber (Nucleopore Corporation, Cabin John, MD). The chamber was assembled and inverted, and cells were allowed to attach for 2 hours at 37 °C to polycarbonate chemotaxis membranes (5 µm pore size) that had been soaked in 0.01 % gelatin overnight and dried. The chamber was then reinverted, and test substances (total volume of 50 µL), including activators, 15 ng/mL bFGF/VEGF, were added to the wells of the upper chamber. The apparatus was incubated for 4 hours at 37 °C. Membranes were recovered, fixed and stained (Diff Quick, Fisher Scientific) and the number of cells that had migrated to the upper chamber per 3 high power fields counted. Background migration to DME + […] was subtracted and the data reported as the number of cells migrated per 10 high power fields (400X) or, when results from multiple experiments were combined, as the percent inhibition of migration compared to a positive control.
Compound,"inhibition at 0.0001 µM (Homo sapiens, 0.1 nM) [%]",further results
"CCN(CCOC)C(=O)N[C@@H]1CCN(C(=O)c2ccc(C)nc2)C1 [Example 71, N-ethyl-N-(2-methoxyethyl)-N'-{(3R)-1-[(6-methylpyridin-3-yl)carbonyl]pyrrolidin-3-yl}urea]",53,–
"CCCN(CCOC)C(=O)N[C@@H]1CCN(C(=O)c2ccc(C)nc2)C1 [Example 72, N-(2-methoxyethyl)-N'-{(3R)-1-[(6-methylpyridin-3-yl)carbonyl]pyrrolidin-3-yl}-N-propylurea]",89,–
"COCCN(CCOC)C(=O)N[C@@H]1CCN(C(=O)c2ccc(C)nc2)C1 [Example 73, N,N-bis(2-methoxyethyl)-N'-{(3R)-1-[(6-methylpyridin-3-yl)carbonyl]pyrrolidin-3-yl}urea]",71,–
"Cc1ccc(C(=O)N2CC[C@@H](NC(=O)N3CC4(C)CC3CC(C)(C)C4)C2)cn1 (stereo partly drawn) [Example 74, 1,3,3-trimethyl-N-{(3R)-1-[(6-methylpyridin-3-yl)carbonyl]pyrrolidin-3-yl}-6-azabicyclo[3.2.1]octane-6-carboxamide]",68,–
"Cc1ccc(C(=O)N2CC[C@@H](NC(=O)N(C)CCc3ccccc3)C2)cn1 [Example 75, N-methyl-N'-{(3R)-1-[(6-methylpyridin-3-yl)carbonyl]pyrrolidin-3-yl}-N-(2-phenylethyl)urea]",–,"inhibition at 0.001 µM (Homo sapiens, 1 nM): 76%"
"CCC(C)N1CCN(C(=O)N[C@@H]2CCN(C(=O)c3ccc(C)nc3)C2)CC1 (stereo partly drawn) [Example 76, 4-sec-butyl-N-{(3R)-1-[(6-methylpyridin-3-yl)carbonyl]pyrrolidin-3-yl}piperazine-1-carboxamide]",58,–
"CCOCCN1CCN(C(=O)N[C@@H]2CCN(C(=O)c3ccc(C)nc3)C2)CC1 [Example 77, 4-(2-ethoxyethyl)-N-{(3R)-1-[(6-methylpyridin-3-yl)carbonyl]pyrrolidin-3-yl}piperazine-1-carboxamide]",58,–
"Cc1ccc(C(=O)N2CC[C@@H](NC(=O)N3CCN(C4CCCCC4)CC3)C2)cn1 [Example 78, 4-cyclohexyl-N-{(3R)-1-[(6-methylpyridin-3-yl)carbonyl]pyrrolidin-3-yl}piperazine-1-carboxamide]",67,–
"Cc1ccc(C(=O)N2CC[C@@H](NC(=O)N3CCN(CCc4cccs4)CC3)C2)cn1 [Example 79, N-{(3R)-1-[(6-methylpyridin-3-yl)carbonyl]pyrrolidin-3-yl}-4-(2-thien-2-ylethyl)piperazine-1-carboxamide]",48,–
"Cc1ccc(C(=O)N2CC[C@@H](NC(=O)N3CCN(CC(=O)N4CCCCC4)CC3)C2)cn1 [Example 80, N-{(3R)-1-[(6-methylpyridin-3-yl)carbonyl]pyrrolidin-3-yl}-4-(2-oxo-2-piperidin-1-ylethyl)piperazine-1-carboxamide]",73,–
"Cc1ccc(C(=O)N2CC[C@@H](NC(=O)N3CCN(C(=O)C4CCCCC4)CC3)C2)cn1 [Example 81, 4-(cyclohexylcarbonyl)-N-{(3R)-1-[(6-methylpyridin-3-yl)carbonyl]pyrrolidin-3-yl}piperazine-1-carboxamide]",55,–
"Cc1ccc(C(=O)N2CC[C@@H](NC(=O)N(CCO)Cc3ccccc3)C2)cn1 [Example 82, N-benzyl-N-(2-hydroxyethyl)-N'-{(3R)-1-[(6-methylpyridin-3-yl)carbonyl]pyrrolidin-3-yl}urea]",57,–
"Cc1ccc(C(=O)N2CCC(NC(=O)N(C)CC(O)c3ccccc3)C2)cn1 (stereo not shown) [Example 83, N-(2-hydroxy-2-phenylethyl)-N-methyl-N'-{1-[(6-methylpyridin-3-yl)carbonyl]pyrrolidin-3-yl}urea]",80,–
"Cc1ccc(C(=O)N2CC[C@@H](NC(=O)N(C)CCc3ccccn3)C2)cn1 [Example 84, N-methyl-N'-{(3R)-1-[(6-methylpyridin-3-yl)carbonyl]pyrrolidin-3-yl}-N-(2-pyridin-2-ylethyl)urea]",62,–
"Cc1ccc(C(=O)N2CC[C@@H](NC(=O)N3CCC(O)CC3)C2)cn1 [Example 85, 4-hydroxy-N-{(3R)-1-[(6-methylpyridin-3-yl)carbonyl]pyrrolidin-3-yl}piperidine-1-carboxamide]",55,–
"Cc1ccc(C(=O)N2CC[C@@H](NC(=O)N3CCC(C(N)=O)CC3)C2)cn1 [Example 86, N^1-{(3R)-1-[(6-methylpyridin-3-yl)carbonyl]pyrrolidin-3-yl}piperidine-1,4-dicarboxamide]",74,–
"Cc1ccc(C(=O)N2CC[C@@H](NC(=O)N3CCC4(CC3)OCCO4)C2)cn1 [Example 87, N-{(3R)-1-[(6-methylpyridin-3-yl)carbonyl]pyrrolidin-3-yl}-1,4-dioxa-8-azaspiro[4.5]decane-8-carboxamide]",55,–
"Cc1ccc(C(=O)N2CC[C@@H](NC(=O)N3CC(C)OC(C)C3)C2)cn1 (stereo partly drawn) [Example 88, 2,6-dimethyl-N-{(3R)-1-[(6-methylpyridin-3-yl)carbonyl]pyrrolidin-3-yl}morpholine-4-carboxamide]",–,inhibition at 10 pM (Homo sapiens): 81%
"Cc1ccc(C(=O)N2CC[C@@H](NC(=O)N3CCN(c4ccccc4)CC3)C2)cn1 [Example 89, N-{(3R)-1-[(6-methylpyridin-3-yl)carbonyl]pyrrolidin-3-yl}-4-phenylpiperazine-1-carboxamide]",62,–
"Cc1ccc(C(=O)N2CC[C@@H](NC(=O)N3CCN(c4ccccn4)CC3)C2)cn1 [Example 90, N-{(3R)-1-[(6-methylpyridin-3-yl)carbonyl]pyrrolidin-3-yl}-4-pyridin-2-ylpiperazine-1-carboxamide]",–,inhibition at 10 pM (Homo sapiens): 52%
"Cc1ccc(C(=O)N2CC[C@@H](NC(=O)N3CCN(c4ccccc4F)CC3)C2)cn1 [Example 91, 4-(2-fluorophenyl)-N-{(3R)-1-[(6-methylpyridin-3-yl)carbonyl]pyrrolidin-3-yl}piperazine-1-carboxamide]",–,inhibition at 10 pM (Homo sapiens): 57%
"Cc1ccc(C(=O)N2CC[C@@H](NC(=O)N3CCN(c4ccc(F)cc4)CC3)C2)cn1 [Example 92, 4-(4-fluorophenyl)-N-{(3R)-1-[(6-methylpyidin-3-yl)carbonyl]pyrrolidin-3-yl}piperazine-1-carboxamide]",–,inhibition at 10 pM (Homo sapiens): 67%
"COc1ccccc1N1CCN(C(=O)N[C@@H]2CCN(C(=O)c3ccc(C)nc3)C2)CC1 [Example 93, 4-(2-methoxyphenyl)-N-{(3R)-1-[(6-methylpyridin-3-yl)carbonyl]pyrrolidin-3-yl}piperazine-1-carboxamide]",72,–
"CCOC(=O)CN1CCN(C(=O)N[C@@H]2CCN(C(=O)c3ccc(C)nc3)C2)CC1 [Example 95, ethyl {4-[({(3R)-1-[(6-methylpyridin-3-yl)carbonyl]pyrrolidin-3-yl}amino)carbonyl]piperazin-1-yl} acetate]",–,inhibition at 10 pM (Homo sapiens): 62%
"Cc1ccc(C(=O)N2CC[C@@H](NC(=O)N3CCN(c4ccc([N+](=O)[O-])cc4)CC3)C2)cn1 [Example 96, N-{(3R)-1-[(6-methylpyridin-3-yl)carbonyl]pyrrolidin-3-yl}-4-(4-nitrophenyl)piperazine-1-carboxamide]",75,–
"COCC1CCCN(C(=O)N[C@@H]2CCN(C(=O)c3ccc(C)nc3)C2)C1 (stereo partly drawn) [Example 97, 3-(methoxymethyl)-N-{(3R)-1-[(6-methylpyridin-3-yl)carbonyl]pyrrolidin-3-yl}piperidine-1-carboxamide]",–,inhibition at 10 pM (Homo sapiens): 54%
"N-{(3R)-1-[(2-chloro-6-methylpyridin-3-yl)carbonyl]pyrrolidin-3-yl}-1,3,3-trimethyl-6-azabicyclo[3.2.1]octane-6-carboxamide [Example 36]",–,% Inhibition @ 1 nM (1 nM): 64%
N-{(3R)-1-[(6-methyl-3-pyridinyl)carbonyl]-3-pyrrolidinyl}-N'-[2-(2-thienyl)ethyl]urea [Example 28],–,% Inhibition @ 0.1 nM (0.1 nM): 86%
